Assay results from US20060128736A1, “Camptothecin-carboxylate formulations” (priority 2002, published 2006).

Assays:
A-375 melanoma [1] = assay: Therapeutic efficacy of LipoCam in A-375 melanoma of nude mice (FIG. 12); type: in vivo, NMRI-nude mice; settings: iv three times a week for three weeks at equitoxic doses, start at about 100 mm^3
Description: (§1) NMRI-nude mice were purchased from Elevage Janvier and housed in isolated ventilated cages under save environmental conditions (SPF facility, 22° C., 30-70% humidity, 12 h light/dark cycle) with food and water ad libitum. Experimental design was reviewed and approved by local government.
(§2) Tumor cells (A-375 human melanoma cell line, ATCC Nr.: CRL-1619) were grown as described in the data sheet supplied by ATCC. Tumor cells (5×10^6 in PBS) were inoculated s.c. in the right dorsal flank of mice in a volume of 50 μl on day 0.
Mice were assigned to the experimental groups (8 animals per cage), housed and handled (including monitoring of the body weight gain) at least five days before tumor inoculation (=day −6 to 0). […] Equitoxic doses of the compounds were determined in separate experiments, where toxicity was evaluated based on haematological parameters, body weight and animal clinical observations (see Tab. 3). […] Animals were clinically monitored during the whole experiment, monitoring of tumor size was performed three times a week. The tumor dimensions were measured by caliper and the tumor size was calculated according to the following formula: V=πL W^2/6 (L=greatest length, W=width of perpendicular axis). The body weight of individual animals was monitored at least twice during handling period, after tumor inoculation and after start of treatment. […]

[2] = Fluorescence anisotropy of CPT in lipid suspensions; type: physicochemical; settings: 10 mM Tris-buffer pH 7.5, 10% trehalose
Description: These finding are corroborated by fluorescence anisotropy measurements of the CPT. In this experiment, an increase of the fluorescence anisotropy is expected if the fluorophore is inserted into a liposome and thus its mobility is decreased. […] DOTAP and DOPC both comprise unsaturated fatty acid chains, but DOTAP is positively charged while DOPC is neutral.
For efficient binding, in addition to charge, the phase state of the fatty acid chains is important. […] DOTAP has its main phase transition (Tm) near 37° C. […] Below that temperature the fatty acid chains are in the gel phase (a crystalline like state) and above they are in the liquid crystalline (fluid-like) state.
FIG. 9: Fluorescence anisotropy measurements of CPT in lipid suspensions from DOTAP and DOPC and as prepared by different methods. […]
FIG. 10: Comparison of fluorescence anisotropy measurements with DOTAP and DMTAP Measurements with CPT and with 10-OH-CPT are shown. […]
In order to get further information on the CPT-lipid interaction form an independent method, fluorescence anisotropy measurements were performed. […] The fluorescence anisotropy was taken as a measure for the binding strength of CPT to the liposome. […]
Fluorescence anisotropy measurements from liposomes with two different cationic lipids, DOTAP and DMTAP, and two different CPT drugs (CPT and 10-OH-CPT) are compared. […]

A-375 melanoma [3] = assay: Therapeutic efficacy of LipoCam IV and VI in A-375 melanoma of nude mice (FIG. 13); type: in vivo, NMRI-nude mice; settings: 1 and 2 mg/kg iv three times a week for three weeks
Description: as §1, §2
Mice were assigned to the experimental groups (8 animals per cage), housed and handled (including monitoring of the body weight gain) at least five days before tumor inoculation (=day −6 to 0). […] Toxicity was evaluated based on hematological parameters, body weight and animal clinical observations. […]
Animals were clinically monitored during the whole experiment, monitoring of tumor size was performed three times a week. The tumor dimensions were measured by caliper and the tumor size was calculated according to the following formula: V=πL W^2/6 (L=greatest length, W=width of perpendicular axis). The body weight of individual animals was monitored at least twice during handling period, after tumor inoculation and after start of treatment. […] The number of red and white blood cells and platelets were determined using an automated cell counter (Abbott Cell Dyn 3500).

Row | Structure (SMILES) | Anti-tumor effect (tumor volume) (A-375 melanoma [1]) | Fluorescence anisotropy (measure of binding strength of CPT to the liposome) [2] | Order of antitumor efficacy (A-375 melanoma [3])
1 | CC[C@@](O)(C(=O)[O-])c1cc2n(c(=O)c1CO)Cc1cc3ccccc3nc1-2.[Na+] [CPT-Na-Carboxylate] | only a retardation | – | –
2 | CCC(O)(C(=O)O)c1cc2n(c(=O)c1CO)Cc1cc3ccccc3nc1-2 (stereo not shown) [CPT-carboxylate] | – | zero | LipoCam IV (2 mg/kg)>LipoCam VI (1 mg/kg)>CPT-carboxylate (2 mg/kg)>CPT-carboxylate (1 mg/kg)
3 | CC[C@@]1(O)C(=O)OCc2c1cc1n(c2=O)Cc2cc3cc(O)ccc3nc2-1 [Formulation 10-OH-CPT, 10-Hydroxy-camptothecin] | – | higher binding efficacy | –
